We go through six compounds from patent US12492164B2, “Fluorine substituted cyclohexene analogues of gamma-aminobutyric acid (GABA)” (Northwestern University, priority 2019, dated 2025).

For one experiment, the target named is T1, hOAT (Homo sapiens, UniProt P04181).
T1 construct: made in house
T1 sequence (P04181 26-439): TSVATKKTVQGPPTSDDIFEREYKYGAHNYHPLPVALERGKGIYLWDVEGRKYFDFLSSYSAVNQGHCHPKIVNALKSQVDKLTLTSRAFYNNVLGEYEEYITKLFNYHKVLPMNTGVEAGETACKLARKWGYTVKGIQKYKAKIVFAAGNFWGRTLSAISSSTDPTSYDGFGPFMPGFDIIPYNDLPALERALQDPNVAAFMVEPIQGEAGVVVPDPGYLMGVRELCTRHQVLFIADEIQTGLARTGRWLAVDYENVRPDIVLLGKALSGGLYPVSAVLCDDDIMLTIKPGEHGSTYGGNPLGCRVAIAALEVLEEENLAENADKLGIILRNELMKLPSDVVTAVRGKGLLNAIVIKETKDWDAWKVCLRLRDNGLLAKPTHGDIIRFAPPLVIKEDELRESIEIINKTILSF
The experiment in a line: Coupled enzyme assay, time-dependent inactivation of hOAT. In kind it is biochemical. On the procedure:
(§1) Kinetic Studies of Fluorine-Substituted Cyclohexene Analogues.
(§2) hOAT and PYCR1 were expressed, grown, and purified according to literature procedures.4, 5 GABA-AT was isolated from pig brains and purified according to a literature procedure.6 Coupled enzyme assays for GABA-AT, hOAT, Ala-AT, and Asp-AT were carried out according to previous procedures.7, 8

A further experiment concerns the target T2, GABA-AT (Sus scrofa, UniProt P80147).
T2 construct: GABA-AT was isolated from pig brains and purified according to a literature procedure; from tissue; host or cells: pig brain
Description: Coupled enzyme assay, time-dependent inactivation of GABA-AT. It is filed as biochemical, pig. The method, then:
as §1, §2

For a further experiment, the system named is HCC tumor. Conditions: doses of 0.1 and 1.0 mg/kg; cited from earlier work.
[1] abbreviates: read-out: kinact/KI (converted).
The mark [2] stands for this setting: inactivation of GABA-AT, pH 8.0.
[3] abbreviates: inactivation of GABA-AT, pH 8.0, read-out: kinact/KI (converted).
Where [4] appears, read: GABA-AT, pH 8.0, bound: KI is greater than kobs (max)/ratio (footnote b).
Setting [5] is: GABA-AT, pH 8.0, bound: kinact is greater than maximum kobs in time-dependent assay (footnote b).

Counter-ions that a name gives are not always drawn. Like-named read-outs stand apart in the source and are kept apart here.

T2 sequence (P80147 29-500): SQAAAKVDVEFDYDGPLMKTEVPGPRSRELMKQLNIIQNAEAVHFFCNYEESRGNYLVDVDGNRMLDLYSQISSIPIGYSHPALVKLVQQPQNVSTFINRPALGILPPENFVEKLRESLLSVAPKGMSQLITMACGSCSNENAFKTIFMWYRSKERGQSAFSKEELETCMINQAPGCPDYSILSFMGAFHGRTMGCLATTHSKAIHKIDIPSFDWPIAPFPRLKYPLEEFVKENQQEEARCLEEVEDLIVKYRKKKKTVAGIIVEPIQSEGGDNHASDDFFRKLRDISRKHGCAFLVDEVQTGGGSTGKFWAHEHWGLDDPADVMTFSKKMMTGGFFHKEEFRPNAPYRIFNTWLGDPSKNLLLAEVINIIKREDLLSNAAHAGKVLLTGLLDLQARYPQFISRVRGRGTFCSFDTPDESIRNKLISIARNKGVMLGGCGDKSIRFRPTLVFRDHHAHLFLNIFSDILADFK

What is called kinact is the rate constant of inactivation at saturating inhibitor. For `N[C@H]1C[C@@H](C(=O)O)C[C@@H]1F` [Compound 1, (1R,3S,4S)-3-amino-4-fluorocyclopentane-1-carboxylic acid, reference compound], the kinact/KI on hOAT (setting [1]) is 1 M⁻¹ s⁻¹; on GABA-AT (setting [3]), 3.67 M⁻¹ s⁻¹. For the same compound, the Ki on GABA-AT (setting [2]) amounted to 78 ± 40 µM. Moreover, the maximal inactivation rate constant (kinact) at GABA-AT (setting [2]) was 0.000283 s⁻¹.

On to `N[C@H]1C[C@@H](C(=O)O)CC1=C(C(F)(F)F)C(F)(F)F` [Compound 7, (1S,3S)-3-Amino-4-(hexafluoropropan-2-ylidenyl)cyclopentane-1-carboxylic Acid, reference compound], for which, on hOAT, the Ki is 65 ± 10 µM, the maximal inactivation rate constant (kinact) is 0.00095 ± 5e-05 s⁻¹ and the kinact/KI is 14.5 M⁻¹ s⁻¹. Further, in the experiment on HCC tumor, the “in vivo HCC tumor growth” value was “suppressed” and the “α-fetoprotein levels (a biomarker for HCC)” value is recorded as “dramatically reduced”.

As for `N[C@H]1C=C(C(=O)O)CC[C@@H]1F` [Compound 8, (3S,4S)-3-Amino-4-fluorocyclohex-1-ene-1-carboxylic acid hydrochloride], the Ki at hOAT is 31 ± 7 µM; at GABA-AT (setting [2]), 2530 ± 710 µM. The values for the kinact on hOAT (read-out: kinact (converted)) and at GABA-AT (setting [2]) were 0.00133 s⁻¹ and 0.00163 s⁻¹, respectively. The kinact/KI is 42.7 M⁻¹ s⁻¹ at hOAT (setting [1]) and 0.65 M⁻¹ s⁻¹ on GABA-AT (setting [3]).

Turning to `N[C@H]1C=C(C(=O)O)CCC1(F)F` [Compound 9, (S)-3-Amino-4,4-difluorocyclohex-1-ene-1-carboxylic acid hydrochloride], the Ki on hOAT was 2.3 ± 0.7 µM; at GABA-AT (GABA-AT, pH 6.5), 1100 µM; at GABA-AT (setting [4]), over 120 µM. The inactivation rate constant (kinact) at hOAT (read-out: kinact (converted)) is 0.0008 s⁻¹; on GABA-AT (GABA-AT, pH 6.5) it was 0.00333 s⁻¹; at GABA-AT (setting [5]), over 0.003 s⁻¹. For the same compound, the kinact/KI is 339 M⁻¹ s⁻¹ on hOAT (setting [1]); 3 M⁻¹ s⁻¹ on GABA-AT (GABA-AT, pH 6.5, read-out: kinact/KI (converted)); 25.3 M⁻¹ s⁻¹ on GABA-AT (GABA-AT, pH 8.0, ratio determined by the slope of kobs vs [I] (footnote b), read-out: kinact/KI (converted)).

On to `N[C@H]1CC(C(=O)O)=CC[C@@H]1F` [Compound 10, (4S,5S)-5-Amino-4-fluorocyclohex-1-ene-1-carboxylic acid hydrochloride], for which the Ki on hOAT turned out to be 4380 ± 860 µM; on GABA-AT (setting [2]) it was 4280 ± 2050 µM. The kinact is 0.00125 s⁻¹ at hOAT (read-out: kinact (converted)) and 0.000467 s⁻¹ at GABA-AT (setting [2]). Besides, the figures for the kinact/KI on hOAT (setting [1]) and at GABA-AT (setting [3]) were 0.283 M⁻¹ s⁻¹ and 0.108 M⁻¹ s⁻¹, respectively.

`N[C@H]1CC(C(=O)O)=CCC1(F)F` [Compound 11, (S)-5-Amino-4,4-difluorocyclohex-1-ene-1-carboxylic acid hydrochloride]: the Ki on hOAT was 540 ± 17 µM; at GABA-AT (setting [4]), over 9630 µM. The values for the inactivation rate constant (kinact) at hOAT (read-out: kinact (converted)) and at GABA-AT (setting [5]) were 0.00138 s⁻¹ and over 0.00483 s⁻¹, respectively. Besides, the kinact/KI at hOAT (setting [1]) was 2.5 M⁻¹ s⁻¹; at GABA-AT (pH 8), 0.5 M⁻¹ s⁻¹.
